Measured values reported in US20160000796A1, “PHARMACEUTICAL COMPOSITION FOR USE IN PREVENTION OR TREATMENT OF CANCER” (priority 2013, published 2016).

How the values were obtained:
[1] = tested on: HTLV-1-producing cell line, MT2; assay: Cellular proliferation test (MTS assay), MT2; type: cell-based
Description: HTLV-1-producing cell lines, MT2 (transformant with HTLV-1, JCRB cell No: JCRB1210) and HUT102 (ATL-derived cell line, ATCC No: TIB-162), were used.
(§1) Each nucleoside analogue reverse transcriptase inhibitor was added to the medium for cells at a final concentration of 100 μM. Cells were seeded on a 96-well plate at a concentration of 1×10^4 cells/100 μL/well and cultured for 4 hours (Day 0), 48 hours (Day 2) or 96 hours (Day 4). A medium added DMSO (solvent control) alone was used as a control. Cellular proliferation was examined by MTS assay. Specifically, after the cells were cultured for a predetermined time, a reagent for cellular proliferation test, Aqueous One Solution Cell Proliferation (trade name, manufactured by Promega), was added to the cells. Four hours later, absorbance at 490 nm was measured. The cellular proliferation was represented by a ratio relative to that of the control (solvent control) on Day 0 that was regarded as 1.
Abacavir was added to MT2 and HUT102 used in Example 1 at a concentration of 0 μM (DMSO was added instead of abacavir), 10 μM, 25 μM, 50 μM, 75 μM or 100 μM. The cells were seeded on a 96-well plate at a concentration of 1×10^4 cells/100 μL/well and cultured for 4 hours or 48 hours. […]

[2] = tested on: Kit225 (non-HTLV-1-infected cell line); assay: Cellular proliferation (MTS assay), Kit225; type: cell-based; details: 100 μM
Description: as §1
(§2) This example used non-HTLV-1-infected cell lines: Jurkat (cell line derived from human T-cell leukemia, ATCC No: TIB-152), Kit225 (cell line derived from chronic T-cell leukemia, established in the laboratory of the inventors, Blood. 1987 October; 70 (4): 1069-72.), H9 (cell line derived from cutaneous T-cell lymphoma, ATCC No: HTB-176) and SUDHL6 (cell line derived from diffuse B cell lymphoma).
(§3) The six types of nucleoside analogue reverse transcriptase inhibitors as used in Example 1 were used and cellular proliferation was examined in the same manner as in Example 1.

[3] = tested on: H9 (non-HTLV-1-infected cell line); assay: Cellular proliferation (MTS assay), H9; type: cell-based; details: 100 μM
Description: as §1, §2, §3

[4] = tested on: ATL cell line, ED40515 (−); assay: Cell-cycle analysis by flow cytometry (PI), ED40515 (−); type: cell-based; details: 10 μM or 100 μM, 24 hours
Description: (§4) To an ATL cell line, ED40515 (−), or a non-ATL cell line, Jurkat, DMSO (solvent control), adriamycin (ADR, positive control) or abacavir (10 μM or 100 μM) was added.

[5] = tested on: non-ATL cell line, Jurkat; assay: Cell-cycle analysis by flow cytometry (PI), Jurkat; type: cell-based, human; details: 10 μM or 100 μM, 24 hours
Description: as §4

[6] = tested on: ATL cell line, ED40515 (−); assay: Apoptosis (annexin V flow cytometry), ED40515 (−); type: cell-based; details: 100 μM, 24 or 48 hours
Description: DMSO (solvent control), adriamycin (ADR, positive control), or abacavir (100 μM) was added to an ATL cell line, ED40515 (−). The cells were cultured for 24 hours or 48 hours. After the culture of a predetermined time, the cells were stained with annexin V, and annexin V positive cells were measured by flow cytometry. The annexin V positive cells were determined as apoptotic cells.

[7] = tested on: HOP—62 (lung cancer cell line lacking TDP1 expression); assay: Cellular proliferation (MTS) of lung cancer cell line HOP—62; type: cell-based; details: 100, 200 or 300 μM, 72 hours
Description: Lung cancer cell lines lacking TDP1 expression, HOP—62 and NCI_H522, were used. NCI_H1299, a lung cancer cell line expressing TDP1, was used as a control. HOP—62 and NCI_H522 were provided by Dr. Pommier (DNA Repair. 2014 January; 13: 1-9).
Abacavir was added to each of the cell lines at a concentration of 0 μM (DMSO was added instead of abacavir), 100 μM, 200 μM or 300 μM. The cells were seeded on a 96-well plate at a concentration of 3×10^3 cells/100 μL/well and cultured for 4 hours or 72 hours. After the culture of a predetermined time, MTS assay was performed using a reagent for cellular proliferation, test, Aqueous One Solution Cell Proliferation (trade name, manufactured by Promega), in the same manner as in Example 1. The cellular proliferation was represented by a ratio relative to that of the control (solvent control) on Day 0 that was regarded as 100%.

Nc1nc(NC2CC2)c2ncn([C@H]3C=C[C@@H](CO)C3)c2n1 [abacavir, (−)-(1S,4R)-4-[2-amino-6-(cyclopropylamino)-9H-purin-9-yl]-2-cyclopentene-1-methanol]
cellular proliferation (ratio relative to solvent control on Day 0) ([1]; 100 μM, Day 0, 2, 4, compared among six NRTIs): most strongly suppressed | cellular proliferation, dose dependence ([1]; 10, 25, 50, 75, 100 μM, 48 hours): suppressed cellular proliferation of both cell lines in a dose-dependent manner | cellular proliferation [2]: did not exhibit a suppressive effect | cellular proliferation [3]: did not exhibit a suppressive effect | cell cycle (ratio of cells in G0G1/S/G2 phase) [4]: induced the S/G2 arrest | cell cycle (ratio of cells in G0G1/S/G2 phase) [5]: did not affect the cell cycle | apoptosis (annexin V positive cells) [6]: induced apoptosis | cellular proliferation [7]: suppressed cellular proliferation of HOP—62 and NCI_H522 lacking TDP1 expression in a concentration dependent manner
